In PMC6937300, “A novel phytocannabinoid isolated from Cannabis sativa L. with an in vivo cannabimimetic activity higher than Δ^9-tetrahydrocannabinol: Δ^9-Tetrahydrocannabiphorol” (Scientific Reports, 2019) one finds Ki data, which are given here for one molecule.

This assay addresses T1, human CB1 receptor (Homo sapiens, UniProt P21554).
T1 construct: gene CNR1

T1 sequence (P21554 whole entry): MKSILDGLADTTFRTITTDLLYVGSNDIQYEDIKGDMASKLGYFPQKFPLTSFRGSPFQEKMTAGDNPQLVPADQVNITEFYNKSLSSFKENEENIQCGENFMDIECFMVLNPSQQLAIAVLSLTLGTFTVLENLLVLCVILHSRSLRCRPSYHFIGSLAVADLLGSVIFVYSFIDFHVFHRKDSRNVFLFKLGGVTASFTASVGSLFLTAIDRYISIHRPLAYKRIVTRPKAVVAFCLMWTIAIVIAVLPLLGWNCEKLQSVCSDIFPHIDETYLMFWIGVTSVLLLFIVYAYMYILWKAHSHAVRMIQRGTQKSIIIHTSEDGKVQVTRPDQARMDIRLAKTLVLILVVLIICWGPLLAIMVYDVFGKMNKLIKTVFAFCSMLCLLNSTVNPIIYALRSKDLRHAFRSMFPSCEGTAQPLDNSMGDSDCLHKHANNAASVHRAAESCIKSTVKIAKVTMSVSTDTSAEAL

Usually Ki stands for a measure of affinity in units of concentration, obtained from inhibition or displacement. A lower Ki goes with a stronger hold on the target. Regarding `CCCCCCCc1cc(O)c2c(c1)OC(C)(C)[C@@H]1CCC(C)=C[C@@H]21` [(-)-trans-Δ^9-THCP, (6aR,10aR)-3-heptyl-6,6,9-trimethyl-6a,7,8,10a-tetrahydro-6H-benzo[c]chromen-1-ol], the Ki came out at 1.2 nM.
